Results from patent US8993781B2, “Fluorescent boron-substituted dipyrromethenes and use thereof for diagnosis” (Centre National de la Recherche Scientifique, priority 2008, dated 2015).

How the values were obtained:
PC12 cells = assay: Spectral index of the labeled amyloid peptide on PC12 cells preincubated with unlabeled beta-amyloid peptide; format: cell-based, rat; settings: PC12 cells preincubated 12 hours with 100 or 250 nM unlabeled peptide, FIG. 5, 4 independent experiments in triplicate
Procedure: PC12 cells (derived from male rat medullo-adrenal gland tumor) are inoculated into glass-bottomed Petri dishes previously treated with collagen and polyornithine. They are cultured for 7 days in an atmosphere containing 5% of CO2 at 37° C. in RPMI 1640 medium containing glutamine and supplemented with 10% of horse serum, 5% of fetal calf serum, 50 U/mL of penicillin and 50 μg/mL of streptomycin. To induce the differentiation of the cells, 50 ng/mL of murine neurotrophic growth factor (NGF) 2.5S are added to the medium 24 hours after the inoculation.
The day before the measurement, unlabeled beta-amyloid peptide 1-42 of SEQ. ID. No.: 1 or the corresponding unlabeled reverse peptide (42-1) of SEQ ID No.: 2 is added at different concentrations lying between 10 and 1000 nmol·L^−1.
The following day, this preparation is washed 3 times with Krebs medium at ambient temperature and placed on an inverted microscope coupled with a spectro-fluorimeter. A fluorescence spectrum (excitation 480 nm; emission 495-600 nm) of the base line is recorded before the addition of the labeled amyloid peptide (250 nmol·L^−1). A second fluorescence spectrum is recorded after 10 minutes of incubation.
The base line spectrum is subtracted from the fluorescence spectrum of the labeled amyloid peptide. […] The ratio of the amplitude (measured graphically or else with the deconvolution software) of the Gaussian curves centered respectively at 525 nm and 540 nm defines a spectral index describing the distribution of the spectrum
The PC12 cells are preincubated for 12 hours in the presence of unlabeled beta-amyloid peptide 1-42 or 42-1 then rinsed before being placed under a microscope coupled to a spectrofluorimeter. A first spectrum (base line) is recorded.
Next, the labeled beta-amyloid peptide is added. A spectrum is recorded 10 minutes after the addition of the fluorescent compound.
The spectral index is the ratio between the amplitude of the first and that of the second Gaussian calculated by deconvolution (see FIG. 4).

rat erythrocytes = assay: Spectral index of the labeled amyloid peptide on rat erythrocytes preincubated with unlabeled beta-amyloid peptide; format: cell-based; settings: rat erythrocytes incubated 2 hours at 37° C. with unlabeled peptide (10-1000 nmol·L^-1); FIG. 6
Procedure: A sample of rat blood (1 to 3 ml) is collected in a heparinized tube. The sample is diluted with Krebs medium then centrifuged three times discarding the buffer layer (“buffy coat”). The erythrocytes obtained are next incubated at 37° C. for 2 hours in the presence of the unlabeled beta-amyloid peptide 1-42 or the corresponding unlabeled reverse peptide (42-1) at various concentrations (10-1000 nmol·L^−1). After an additional washing, the cells are placed in a spectro-fluorimeter and a fluorescence spectrum (excitation 480 nm; emission 495-600 nm) of the base line is recorded before the addition of the labeled amyloid peptide (250 nmol·L^−1). A second fluorescence spectrum is recorded after 10 minutes of incubation in the presence of the labeled amyloid peptide.
The base line spectrum is subtracted from the fluorescence spectrum of the labeled beta-amyloid peptide. The spectrum obtained is broken down into 4 component Gaussian curves by deconvolution and non-linear regression. The ratio of the amplitude of the Gaussian centered around 510 nm to the amplitude of the Gaussian centered around 530 nm is calculated. Its value varies as a function of the concentration of unlabeled beta-amyloid peptide 1-42 in the presence of which the cells were incubated as illustrated in FIG. 6.

beta-amyloid peptide 42-1: corresponding unlabeled reverse peptide (42-1) of SEQ ID No.: 2, inactive (AIVVGGVMLGIIAGKNSGVDEAFFVLKQHHVEYGSDHRFEAD; listed as Homo sapiens)
change in the value of the spectral index of the labeled amyloid peptide induced by preincubation with unlabeled peptide (PC12 cells): no significant effect | change in the value of the spectral index of the labeled amyloid peptide induced by preincubation with unlabeled peptide (PC12 cells; listed as β-amyloid peptide 42-1): absence of change

beta-amyloid peptide 1-42: unlabeled human beta-amyloid peptide 1-42 of SEQ ID No.: 1
change in the value of the spectral index of the labeled amyloid peptide induced by preincubation with unlabeled peptide (PC12 cells): increases with the increase in concentration of peptide preincubated | value of the spectral index (ratio of Gaussian amplitudes around 510 nm and 530 nm) of the labeled amyloid peptide after preincubation with unlabeled peptide (rat erythrocytes): increases as a function of the concentration
